Measured values as given in patent US10807993B2, “Dihydrochromene derivatives” (Sumitomo Dainippon Pharma Co., Ltd., priority 2018, dated 2020).
Read-outs that look alike come from different tables or passages of the source.

How the values were obtained:
HT-29 cells = test: Inhibition test for sphere formation assay of cancer cells; type: cell-based; conditions: for IC50: sphere culture (ultra-low attachment, serum-free), 4 days, CellTiter-Glo, read-out: Sphere IC50 value (concentration for 50% inhibition of cell proliferation); for activity for inhibiting cell proliferation in the sphere culture condition: summary in words
Method: Reliable methods established for measuring the self-renewal ability of cells which is one of the CSC's properties include a method for measuring the sphere-forming ability of cancer cells in non-adherent condition in the absence of serum (Cancer Res 65, 5506-5511 (2005)). HT-29 cells were available from American Type Culture Collection (ATCC). HT-29 cells were cultured at 37° C. under 5% CO2 using the McCoy's 5a medium containing 10% fetal bovine serum (FBS) and 1% penicillin/streptomycin. HT-29 cells were seeded in a 384 Well Black Clear Bottom Ultra-Low Attachment Microplate (Corning Cat. No. 3827) in an amount of 350-800 cells/well using the DMEM/F12 medium containing 2% B27 supplement (GIBCO), 20 ng/mL epidermal growth factor (EGF) (peprotech), 10 ng/mL basic fibroblast growth factor (bFGF) (peprotech), 5 μg/mL insulin (Sigma), and 1% penicillin/streptomycin. Each test compound was added into each well to adjust the final concentration of DMSO to 0.1%, and the cells were cultured for 4 days. The number of viable cells in each well was then measured with CellTiter-Glo™ Luminescent Cell Viability Assay (Promega) to calculate the concentration of each test compound for 50% inhibition of cell proliferation (Sphere IC50 value; […])
The experiment of Test 1 was performed for each compound of each Example. The concentration of each test compound for 50% inhibition of cell proliferation (Sphere IC50 value; μmol/L) is shown in the following Table.

hERG [1] = molecular target: T1, hERG (Homo sapiens (Human), UniProt Q12809)
Method: (§1) To a cultured CHO cell strain which stably expresses hERG was added each test compound to adjust the final concentration of DMSO to 0.0135 to 0.5%. The hERG current was measured with QPatch HT (Sophion Inc.), and the concentration at which 50% of the hERG current was inhibited by each test compound (IC50 value; μM) was calculated.
(§2) The compounds of Examples were tested according to Test 2. And, the hERG/HT-29 was calculated by dividing the compound concentration obtained in Test 2 (50% of the hERG current is inhibited) by the compound concentration obtained in Test 1 (50% of the proliferation of HT-29 cells is inhibited).

hERG [2] = molecular target: T1, hERG; test: Test for evaluating hERG inhibition (QPatch HT, CHO cell strain stably expressing hERG); conditions: for hERG/HT-29: hERG IC50 (Test 2) divided by HT-29 sphere IC50 (Test 1); for IC50: read-out: Binding inhibition (IC50, μM), concentration at which 50% of the hERG current was inhibited, CHO cells stably expressing hERG, QPatch HT; for deviation between the concentration of inhibiting 50% cell proliferation and the concentration of inhibiting 50% hERG current: summary in words of hERG/HT-29
Method: as §1, §2

T1 sequence (Q12809 whole entry): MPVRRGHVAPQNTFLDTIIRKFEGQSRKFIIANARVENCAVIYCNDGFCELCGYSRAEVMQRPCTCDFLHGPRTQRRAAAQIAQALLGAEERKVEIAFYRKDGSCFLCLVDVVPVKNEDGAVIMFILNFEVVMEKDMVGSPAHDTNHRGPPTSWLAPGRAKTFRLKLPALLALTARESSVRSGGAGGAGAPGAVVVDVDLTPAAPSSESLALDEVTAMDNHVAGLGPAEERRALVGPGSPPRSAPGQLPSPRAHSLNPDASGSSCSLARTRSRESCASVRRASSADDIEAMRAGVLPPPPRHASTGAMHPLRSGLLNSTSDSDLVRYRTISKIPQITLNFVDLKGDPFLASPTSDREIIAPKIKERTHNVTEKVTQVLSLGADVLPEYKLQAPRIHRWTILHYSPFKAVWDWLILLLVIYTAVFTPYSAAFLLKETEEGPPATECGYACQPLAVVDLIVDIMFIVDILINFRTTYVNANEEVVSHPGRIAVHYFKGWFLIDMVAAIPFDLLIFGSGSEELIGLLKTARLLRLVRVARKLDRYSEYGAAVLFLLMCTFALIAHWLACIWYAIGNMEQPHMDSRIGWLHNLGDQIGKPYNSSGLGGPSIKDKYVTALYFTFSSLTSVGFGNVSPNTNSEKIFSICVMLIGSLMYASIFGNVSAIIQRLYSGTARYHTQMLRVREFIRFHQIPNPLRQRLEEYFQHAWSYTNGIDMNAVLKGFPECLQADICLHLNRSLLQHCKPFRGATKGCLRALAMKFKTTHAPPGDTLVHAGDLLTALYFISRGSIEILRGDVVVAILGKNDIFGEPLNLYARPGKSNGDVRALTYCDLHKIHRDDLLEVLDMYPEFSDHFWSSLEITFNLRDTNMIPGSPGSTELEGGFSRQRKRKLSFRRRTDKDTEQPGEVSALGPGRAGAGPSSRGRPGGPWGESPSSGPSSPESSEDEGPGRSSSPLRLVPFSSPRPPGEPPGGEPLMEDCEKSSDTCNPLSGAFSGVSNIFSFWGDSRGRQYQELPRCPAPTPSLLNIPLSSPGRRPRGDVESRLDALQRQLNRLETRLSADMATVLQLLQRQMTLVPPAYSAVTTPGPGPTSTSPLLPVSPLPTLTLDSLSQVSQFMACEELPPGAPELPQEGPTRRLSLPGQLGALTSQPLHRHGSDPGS

Structure (SMILES)	IC50 (HT-29 cells) [nM]	IC50 (hERG [1]) [nM]	hERG/HT-29 (hERG [1])	activity for inhibiting cell proliferation in the sphere culture condition (HT-29 cells)	hERG/HT-29 (hERG [2])	IC50 (hERG [2]) [µM]	deviation between the concentration of inhibiting 50% cell proliferation and the concentration of inhibiting 50% hERG current (hERG [2])
Cc1nccn1CC(=O)N1CCC2(CC1)COC1c3cc(Cl)ccc3OC(C)(C)C1C2 (single isomer, unassigned) [Example 3]	80	200	2.50	–	–	–	–
Cc1nccn1CC(=O)N1CCC2(CC1)COC1c3ccc(Br)cc3OC(C)(C)C1C2 (stereo not drawn) [Example 8]	310	300	0.97	–	–	–	–
CC1(C)Oc2ccc(N=[N+]=[N-])cc2C2OCC3(CCN(C(=O)Cn4ccnc4C#N)CC3)CC21 (stereo not drawn) [Example 11]	4090	4900	1.20	–	–	–	–
CC1(C)Oc2ccc(Cl)cc2C2OCC3(CCN(C(=O)Cn4ccnc4C#N)CC3)CC21 (stereo not drawn) [Example 12]	550	2900	5.27	–	–	–	–
Cc1c(CO)ncn1CC(=O)N1CCC2(CC1)COC1c3cc(Cl)ccc3OC(C)(C)C1C2 (stereo not drawn) [Example 14]	400	300	0.75	–	–	–	–
CC1(C)Oc2ccc(Cl)cc2C2OCC3(CCN(C(=O)Cn4ccnc4CO)CC3)CC21 (stereo not drawn) [Example 15]	300	1600	5.33	–	–	–	–
CC1(C)Oc2ccc(Cl)cc2C2OCC3(CCN(C(=O)Cn4cnc(C(F)(F)F)c4)CC3)CC21 (stereo not drawn) [Example 17]	8300	3000	0.36	–	–	–	–
CC1(C)Oc2ccc(Cl)cc2C2OCC3(CCN(CCn4ccnc4)CC3)CC21 (stereo not drawn) [Example 40]	< 10	–	–	potent activity	>140	1.4	good deviation
CC1(C)Oc2cc(Cl)ccc2C2OCC3(CCN(CCn4ccnc4)CC3)CC21 (stereo not drawn) [Example 41]	< 10	–	–	potent activity	>70	0.7	good deviation
CC1(C)Oc2cc(Cl)ccc2C2OCC3(CCN(CCn4ccnc4)CC3)CC21 (stereo not drawn) [Example 42]	< 10	–	–	potent activity	>140	1.4	good deviation
Cc1nccn1CCN1CCC2(CC1)COC1c3cc(F)ccc3OC(C)(C)C1C2 (stereo not drawn) [Example 43]	50	1000	20	–	–	–	–
Cc1nccn1CCN1CCC2(CC1)COC1c3cc(F)ccc3OC(C)(C)C1C2 (stereo not drawn) [Example 44]	< 10	–	–	potent activity	>360	3.6	good deviation
Cc1nccn1CCN1CCC2(CC1)COC1c3cc(F)ccc3OC(C)(C)C1C2 (stereo not drawn) [Example 45]	< 10	400	>40	potent activity	–	–	–
Cc1nccn1CCN1CCC2(CC1)COC1c3cc(Cl)ccc3OC(C)(C)C1C2 (stereo not drawn) [Example 47]	< 10	–	–	potent activity	>190	1.9	good deviation
Cc1nccn1CCN1CCC2(CC1)COC1c3cc(Cl)ccc3OC(C)(C)C1C2 (stereo not drawn) [Example 48]	< 10	–	–	potent activity	>80	0.8	good deviation
Cc1nccn1CCN1CCC2(CC1)COC1c3ccc(Cl)cc3OC(C)(C)C1C2 (stereo not drawn) [Example 49]	< 10	–	–	potent activity	>140	1.4	good deviation
Cc1nccn1CCN1CCC2(CC1)COC1c3ccc(Cl)cc3OC(C)(C)C1C2 (stereo not drawn) [Example 50]	30	1500	50	–	–	–	–
Cc1nccn1CCN1CCC2(CC1)COC1c3ccc(Cl)cc3OC(C)(C)C1C2 (stereo not drawn) [Example 51]	< 10	–	–	potent activity	>90	0.9	good deviation
CC1(C)Oc2cc(Cl)ccc2C2OCC3(CCN(CCn4ccnc4CO)CC3)CC21 (stereo not drawn) [Example 54]	< 10	–	–	potent activity	>140	1.4	good deviation
CC1(C)Oc2ccc(Cl)cc2C2OCC3(CCN(CCn4cnc(CO)c4)CC3)CC21 (stereo not drawn) [Example 55]	60	1600	26.7	–	–	–	–
Cc1c(CO)ncn1CCN1CCC2(CC1)COC1c3cc(Cl)ccc3OC(C)(C)C1C2 (stereo not drawn) [Example 56]	< 10	–	–	potent activity	>80	0.8	good deviation
Cc1nc(CO)cn1CCN1CCC2(CC1)COC1c3ccc(Cl)cc3OC(C)(C)C1C2 (stereo not drawn) [Example 57]	70	1100	15.7	–	–	–	–
CC1(C)Oc2ccc(Cl)cc2C2OCC3(CCN(CCn4ccnc4C#N)CC3)CC21 (stereo not drawn) [Example 58]	70	1900	27.1	–	–	–	–
CC(=O)NCCc1nccn1CCN1CCC2(CC1)COC1c3cc(Cl)ccc3OC(C)(C)C1C2 (stereo not drawn) [Example 60]	160	1100	6.88	–	–	–	–
